From BindingDB's records for doi:10.1016/j.bioorg.2016.06.004 (Nirma University, 2016)

What follows are compounds tested against T1, Seed linoleate 13S-lipoxygenase-1 (Glycine max, UniProt P08170) (assay: In-vitro LOX Inhibition Assay). Conditions: pH 9; 25 °C.
T1 sequence (P08170 whole entry): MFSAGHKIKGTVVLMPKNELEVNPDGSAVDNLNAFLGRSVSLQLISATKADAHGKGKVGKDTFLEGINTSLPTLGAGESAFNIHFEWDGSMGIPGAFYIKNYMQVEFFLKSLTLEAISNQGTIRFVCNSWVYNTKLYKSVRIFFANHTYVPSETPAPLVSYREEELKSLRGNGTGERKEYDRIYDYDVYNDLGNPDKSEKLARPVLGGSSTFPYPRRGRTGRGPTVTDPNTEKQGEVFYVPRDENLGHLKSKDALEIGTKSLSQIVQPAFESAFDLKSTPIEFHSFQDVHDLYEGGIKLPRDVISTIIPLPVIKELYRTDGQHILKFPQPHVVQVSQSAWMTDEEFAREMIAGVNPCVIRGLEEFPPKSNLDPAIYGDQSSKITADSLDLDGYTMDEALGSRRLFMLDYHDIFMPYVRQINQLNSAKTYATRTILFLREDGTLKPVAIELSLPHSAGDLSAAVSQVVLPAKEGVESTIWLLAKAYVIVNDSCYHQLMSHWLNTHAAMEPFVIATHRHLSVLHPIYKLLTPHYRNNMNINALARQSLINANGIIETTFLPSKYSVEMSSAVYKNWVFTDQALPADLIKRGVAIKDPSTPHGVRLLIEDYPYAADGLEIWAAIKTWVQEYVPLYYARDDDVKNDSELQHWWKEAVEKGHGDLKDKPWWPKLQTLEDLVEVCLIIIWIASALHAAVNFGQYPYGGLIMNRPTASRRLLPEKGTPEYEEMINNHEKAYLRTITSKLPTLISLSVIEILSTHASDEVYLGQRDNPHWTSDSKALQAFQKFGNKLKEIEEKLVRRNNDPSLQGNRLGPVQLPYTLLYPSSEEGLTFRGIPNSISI
Method: It is determined by kinetic mode of spectro-photometric determination method,which was performed by recording the rate of change in absorbance at 234 nm. It is based on the principle that the increase of absorbance at 234 nm due to formation of 9- and 13- hydroperoxides by LOX with substrate (linoleic acid). […] Briefly, the stock solution of lipoxygenase was prepared by dissolving 10,000 units/ml of Lipoxidase in 200 mM borate buffer, pH 9, and 5 uL of 80 mmol linoleic acid. Six different concentrations of inhibitors were selected, and made for determining the enzyme inhibition activity. Increasing concentrations of inhibitors were added to enzyme solution and kept for 5 min followed by substrate addition and kept at room temperature with stirring for 20 min.

IC50 [nM]	Structure (SMILES)
2.79	Cc1cc(=O)oc2cc(OCC(O)CNc3nc4ccc(Cl)cc4s3)ccc12 (stereo not given) [7-(3-(6-chlorobenzo[d]thiazol-2-ylamino)-2-hydroxypropoxy)-4-methyl-2H-chromen-2-one (33)]
3.24	Cc1cc(=O)oc2cc(OCC(O)CNc3nc4ccc([N+](=O)[O-])cc4s3)ccc12 (stereo not given) [7-(2-hydroxy-3-(6-nitrobenzo[d]thiazol-2-ylamino)propoxy)-4-methyl-2H-chromen-2-one (31)]
2.12	COc1ccc2nc(NCC(O)COc3ccc4c(C)cc(=O)oc4c3)sc2c1 (stereo not given) [7-(2-hydroxy-3-(6-methoxybenzo[d]thiazol-2-ylamino)propoxy)-4-methyl-2H-chromen-2-one (35)]

Further lines, the compound ahead of its results:

Structure (SMILES)	IC50 [nM]
Cc1cc(=O)oc2cc(OCC(O)CNc3nc4cc(Cl)c(Cl)cc4s3)ccc12 (stereo not given) [7-(3-(5,6-dichlorobenzo[d]thiazol-2-ylamino)-2-hydroxypropoxy)-4-methyl-2H-chromen-2-one (34)]	15.5
Cc1cc(=O)oc2cc(OCC(O)CNc3nc4cc(Cl)c(F)cc4s3)ccc12 (stereo not given) [7-(3-(5-chloro-6-fluorobenzo[d]thiazol-2-ylamino)-2-hydroxypropoxy)-4-methyl-2H-chromen-2-one (32)]	6.16
